For data set [1], the target named is GPR6 receptor expressed in CHO-K1 cells (Homo sapiens (Human), UniProt P46095). Put plainly: In vitro inhibition of constitutive cAMP activity of GPR6 receptor (EC50). The conditions noted are these: CHO-K1 cells expressing GPR6. The class given is cell-based.
Method: This cell-based assay measures the ability of test compounds to inhibit the constitutive cAMP activity of GPR6 receptor expressed in CHO-K1 cells. CHO cells are stably expressed with GPR6 receptor, whose expression is controlled by a tetracycline inducible element. The cells were cultured in medium containing F12K, 10% FBS, 1% Penn/Strep, 200 μg/mL Hygromycin. GPR6 receptor expression is induced for 20 hours with 2 μg/mL doxycycline (Sigma D9891) in growth media. After addition of doxycycline, the cells are plated at a density of 450-750 cells per well in 96-well half-volume black tissue culture plates (Costar) and placed in an incubator (37° C., 5% CO2) for 20 hours prior to cAMP assays.
Culture media is removed from the cells and they are washed with 50 μL/well of Ringer's Buffer (MgCl2 0.047 mg/mL, NaH2PO4 0.18 mg/mL, Na2HPO4 0.1 mg/mL, KCl 0.34 mg/mL, NaHCO31.26 mg/mL, D-glucose 1.8 mg/mL, NaCl 7 mg/mL; pH=7.4). The test compounds are suspended in DMSO, diluted in Ringer's Buffer containing 0.5% fatty acid free BSA plus 300 μM 3-isobutyl-1-methylxanthine (IBMX), and incubated on the cells for 45 minutes at 37° C. and 5% CO2. […] Then ULIGHT™-anti-cAMP solution from the LANCE® kit is added and incubated on a shaker at room temperature for 1 hour prior to homogeneous time resolved fluorescence (HTRF) detection in a PerkinElmer EnVision plate reader. […]
The target in the next data set is human hERG (Homo sapiens (Human), UniProt Q12809). The data set can be described thus: Inhibition of human hERG via automated whole cell patch clamp. The class given is cell-based. The conditions noted are these: for IC50: CHO-K1 cells transfected with human hERG cDNA, patch clamp; for safety margin relative to inhibition of hERG: statement in words. The protocol: An automated whole cell patch-clamp system (QPATCH® 16) is used to record outward potassium currents from a single cell. The assay employs CHO-K1 (Chinese Hamster Ovary) cells stably transfected with human hERG cDNA. The cells are harvested by trypsinization and maintained in serum-free medium at room temperature before recording. The cells are washed and re-suspended in the extracellular solution before being applied to the automated patch-clamp sites. The test solutions are prepared in the aqueous extracellular solution (137 mM NaCl, 4 mM KCl, 1.8 mM CaCl2), 1 mM MgCl2, 10 mM D(+)-Glucose, 10 mM HEPES, pH adjusted to 7.4 with NaOH) on the day of patch-clamp assay. Seven concentrations (0.03, 0.1, 0.3, 1, 3, 10, and 30 μM) of the test compound are used to determine IC50. The aqueous intracellular solution contains 130 mM KCl, 10 mM NaCl, 1 mM MgCl2, 10 mM EGTA, 5 mM MgATP, and 10 mM HEPES (pH adjusted to 7.2 with KOH).
After whole cell configuration is achieved, the cell is held at −80 mV. A 50 ms pulse to −40 mV is delivered to measure the leaking current, which is subtracted from the tail current on-line. Then the cell is depolarized to +20 mV for 2 seconds, followed by a 1 second pulse to −40 mV to reveal the hERG tail current. This paradigm is delivered once every 5 seconds to monitor the current amplitude. The assay is conducted at room temperature. The extracellular solution (control) is applied first and the cell is stabilized in the solution for 5 minutes. Then the test compound is applied from low to high concentrations sequentially on the same cell. The cells are incubated with each test concentration for 5 minutes. A reference compound E-4031 (N-(4-(1-(2-(6-methylpyridin-2-yl)ethyl)piperidine-4-carbonyl)phenyl)methanesulfonamide) is tested concurrently at multiple concentrations to obtain an IC50 value. The percent inhibition of hERG channel is calculated by comparing the tail current amplitude before and after application of the compound (the current difference is normalized to the control).
(In general: hERG is a cardiac potassium channel; its block is linked to QT prolongation.)

In a further data set the target is human GPR6 (Homo sapiens (Human), UniProt P46095). Conditions: membranes from CHO-K1 cells expressing human GPR6, 3H radioligand.
A further data set concerns 6-OHDA rat model. The data set can be described thus: 6-Hydroxydopamine (6-OHDA) rat model of Parkinson's disease, locomotor activity. The class given is in vivo. The protocol:
Compounds that improve motor activity are considered promising as potential therapies for Parkinson's disease. Rats of the 6-OHDA model of Parkinson's disease received bilateral injections of 6-OHDA into the striatum and coordinates Anterior-Posterior (AP): Medial-Lateral (ML): Dorsal-Ventral (DV), 1±3, −5 mm relative to Bregma under anaesthesia. Rats were tested for locomotor activity at least 28 days later.
Locomotor activity was measured in an open field arena covered in an array of infrared beams. Beam breaks by the animals were processed using AMLOGGER software to monitor activity.

For a further data set, the system named is conscious beagle dogs. The data set can be described thus: Effects on the cardiovascular system using telemetry in conscious beagle dogs. The format is in vivo, dog. The conditions noted are these: single oral gavage doses 30, 100 and 300 mg/kg, compared to vehicle. From the text: The beagle dogs are equipped with telemetry devices from DSI PHYSIOTEL® Digital L21 transmitter implants according to the appropriate Charles River Laboratories, Montreal, QC Standard Operating Procedure (TB 12-04-06). The biopotential leads are placed in a modified lead II configuration. A minimum acclimation period of 6 days is allowed between animal arrival and the start of the surgical implantation of the telemetry devices in order to accustom the animals to the laboratory environment. A minimum recovery period of 4 weeks is allowed between surgeries and the start of treatment. […]
The parameters monitored include: heart rate derived from blood pressure, left ventricular pressure (LVP), and electrocardiogram waveforms; LVP (peak systolic and end-diastolic LVP and max positive/negative dP/dt values); electrocardiogram (PR interval (PR), RR variability (RR″), QRS complex (QRS), QT intervals, and QTcv calculated using the Van de Water equation QTcv=QT−87(60/HR−1)); and body temperature.
Marking of ECG segments is conducted using ECG Pattern Recognition software. A library for each animal is constructed of representative cycles from both the day and night cycle and is applied across monitoring occasions to ensure appropriate marking for quantitative assessments, in accordance with the appropriate Charles River Laboratories, Montreal, QC. […]

Chain of human hERG (Q12809 whole entry): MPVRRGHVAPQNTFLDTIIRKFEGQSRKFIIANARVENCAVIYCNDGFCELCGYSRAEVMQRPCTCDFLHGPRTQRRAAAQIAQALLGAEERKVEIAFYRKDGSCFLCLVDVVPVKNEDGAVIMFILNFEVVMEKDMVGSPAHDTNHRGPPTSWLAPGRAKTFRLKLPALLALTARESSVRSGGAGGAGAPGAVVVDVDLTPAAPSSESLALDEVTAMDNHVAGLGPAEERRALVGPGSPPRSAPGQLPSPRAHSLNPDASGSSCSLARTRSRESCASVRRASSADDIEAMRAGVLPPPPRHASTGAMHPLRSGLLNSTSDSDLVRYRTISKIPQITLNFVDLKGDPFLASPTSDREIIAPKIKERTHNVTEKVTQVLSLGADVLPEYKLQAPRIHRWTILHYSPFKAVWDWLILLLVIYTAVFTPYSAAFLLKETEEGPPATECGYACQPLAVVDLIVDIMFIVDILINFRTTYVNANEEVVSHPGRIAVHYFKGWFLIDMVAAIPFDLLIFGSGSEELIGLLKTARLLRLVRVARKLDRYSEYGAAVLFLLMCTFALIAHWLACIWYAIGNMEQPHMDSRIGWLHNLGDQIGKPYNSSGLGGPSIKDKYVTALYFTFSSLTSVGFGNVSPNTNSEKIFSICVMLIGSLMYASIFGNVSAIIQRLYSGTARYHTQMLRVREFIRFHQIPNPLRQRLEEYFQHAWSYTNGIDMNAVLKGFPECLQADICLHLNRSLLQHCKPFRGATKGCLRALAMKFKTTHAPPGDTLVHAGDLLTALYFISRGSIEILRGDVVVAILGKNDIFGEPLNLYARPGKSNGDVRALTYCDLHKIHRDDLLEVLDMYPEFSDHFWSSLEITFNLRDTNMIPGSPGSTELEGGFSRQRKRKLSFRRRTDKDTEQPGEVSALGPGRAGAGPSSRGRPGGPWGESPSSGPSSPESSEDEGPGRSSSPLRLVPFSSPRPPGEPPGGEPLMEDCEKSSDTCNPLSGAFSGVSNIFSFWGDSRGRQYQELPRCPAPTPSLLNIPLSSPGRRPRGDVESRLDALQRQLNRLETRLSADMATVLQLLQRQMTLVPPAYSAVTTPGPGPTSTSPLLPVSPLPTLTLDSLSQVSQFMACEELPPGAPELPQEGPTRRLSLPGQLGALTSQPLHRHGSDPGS
Chain of GPR6 receptor expressed in CHO-K1 cells (P46095 whole entry): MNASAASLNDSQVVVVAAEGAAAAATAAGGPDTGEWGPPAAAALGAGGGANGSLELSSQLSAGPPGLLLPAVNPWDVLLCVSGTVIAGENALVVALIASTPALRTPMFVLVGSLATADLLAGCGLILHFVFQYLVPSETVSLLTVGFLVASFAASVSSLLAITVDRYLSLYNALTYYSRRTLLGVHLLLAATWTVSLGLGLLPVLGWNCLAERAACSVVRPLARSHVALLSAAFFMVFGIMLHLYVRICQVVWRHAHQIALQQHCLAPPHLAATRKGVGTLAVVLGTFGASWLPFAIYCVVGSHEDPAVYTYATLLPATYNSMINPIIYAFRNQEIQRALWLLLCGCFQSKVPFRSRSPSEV
Chain of human GPR6 (P46095 whole entry): as above
Method for human GPR6: A competition binding assay using a filtration-based format is used to study the binding characteristics of GPR6 inverse agonists. The method employs membranes prepared from CHO-K1 cells expressing human GPR6 cDNA driven by a doxycycline inducible promoter. Assay ready 96 well plates (651201, Greiner, USA) containing serial dilutions of test compounds (1 μL of test ligand/well) are prepared in DMSO using liquid handlers (5 μM, final assay top concentration). Assay buffer (50 mM Tris, pH 7.4, 50 mM NaCl, 6 mM MgCl2, fatty acid free 0.1% BSA, 1:100 proteinase inhibitor cocktail, Sigma USA) is added (39 μL/well) and the plates are mixed on a plate shaker for 10 minutes. GPR6-specific ^3H radioligand is prepared in assay buffer and is added to each well (40 μL, 2.4 nM final assay concentration).
To initiate the binding reactions, 40 μL of total membranes obtained from cells expressing human GPR6 receptors is added. The membranes are prepared in assay buffer and added per well to 15 μg/well final assay concentration. […] Scintillator sheet (1450-411, PerkinElmer, USA) is melted on filters and heat-sealed before CPM/well were quantified in MICROBETA® Trilux instrument (PerkinElmer, USA). […] The IC50 and Ki values are calculated using non-linear regression analysis in Prism (GraphPad, USA). Kd values are determined in standard radioligand saturation experiments.

Turning to `CC(=O)N1CCc2nc(N3CCC(Oc4ccc(F)cc4F)CC3)c(N[C@H]3CCOC3)nc2C1` [Compound A, (S)-1-(2-(4-(2,4-difluorophenoxy)piperidin-1-yl)-3-((tetrahydrofuran-3-yl)amino)-7,8-dihydropyrido[3,4-b]pyrazin-6(5H)-yl)ethan-1-one, reference compound], in data set [1], the pEC50 – broadly, −log10 of the EC50, conventionally taken in molar units – was found to be 7.2. Further, on human hERG, the IC50 (in general, the concentration that inhibits the measured activity by half) came to 505 nM and the “safety margin relative to inhibition of hERG” value is “suboptimal safety margin”. Also, the Ki (as a rule, the dissociation constant of the complex between target and ligand, obtained from inhibition or displacement) on human GPR6 was 6 nM.
In the case of `CC(=O)N1CCc2nc(N3CCC(Oc4ccc(F)cc4F)CC3)c(N[C@@H]3CCOC3)nc2C1` [Formula 1, (R)-1-(2-(4-(2,4-difluorophenoxy)piperidin-1-yl)-3-((tetrahydrofuran-3-yl)amino)-7,8-dihydropyrido[3,4-b]pyrazin-6(5H)-yl)ethan-1-one], the pEC50 in data set [1] is recorded as 7.2. Moreover, at human hERG, inhibition was half-maximal at 1970 nM (IC50) and the “safety margin relative to inhibition of hERG” value was “improved SM-free”. For the same compound, the “hERG inhibition potency compared with Compound A” value on human hERG (comparison in words) is “significantly less potent inhibitor of hERG than Compound A”. In addition, the locomotor activity result in the data set on 6-OHDA rat model (5 mg/kg and 10 mg/kg, compared to vehicle, after 50 minutes, FIG. 1) is listed as “dose dependent improvement in locomotor activity”. Further, the locomotor activity entry in the data set with 6-OHDA rat model (10 mg/kg dose) is on record as “significant increase in activity”. Further, in the data set on conscious beagle dogs, the “arterial blood pressures, contractility, P-R interval, QRS complex, QT interval durations” value was “No changes are observed”. The compound further gave a Ki on human GPR6 of 5.5 nM.
